The source of these data is patent publication US8901118B2, “Compounds and methods for kinase modulation, and indications therefor” (Plexxikon Inc., priority 2010, dated 2014).

In one series the test system is SKNSH cells. Nature of the series: SKNSH (human neuroblastoma) cell proliferation assay (ATPlite). Format: cell-based. The conditions noted are these: SK-N-SH, read-out: Inhibition of Cell Proliferation IC50, SKNSH. In short, it runs like this: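 SK-N-SH human neuroblastoma cells grown in RPMI with 10% FBS were pelleted, resuspended at 2×10^4 cells/mL, and plated at 3,000 cells per well (150 μL) in 96-well plates, then kept overnight at 37° C. in 5% CO2. Compounds in an 8-point 1:3 DMSO series were added as 0.75 μL aliquots.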
(In ATP-based viability assays light output follows the ATP content of the culture.)

A short description of series [1]: Relative solubility by turbidity in aqueous buffers (pH 1.5, 4.5, 6.8, 7.4). Particulars: for turbidity threshold (L, M, H) 1.4: pH 1.5 (SGF); for turbidity threshold (L, M, H) 4.5: pH 4.5 (SIF); for turbidity threshold (L, M, H) 6.8: pH 6.8 (SIF); for turbidity threshold (L, M, H) 7.4: pH 7.4 (HEPES). Format: physicochemical. In short, it runs like this: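 Twofold DMSO dilutions of a 25 mM stock were spiked into SGF (0.5M NaCl, pH 1.5), SIF (0.05M NaH2PO4, pH 4.5 and 6.8) or HEPES buffer (10 mM HEPES, 150 mM NaCl, pH 7.4). Absorbance was read at 490, 535 and 650 nm. The endpoint is the concentration crossing O.D. 0.01, averaged across wavelengths.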

Another series has as its system MV-4-11 cells. Nature of the series: MV-4-11 (leukemia) cell proliferation assay (ATPlite). Format: cell-based. The conditions noted are these: Homo sapiens, MV4-11, read-out: Inhibition of Cell Proliferation IC50, MV-4-11. In short, it runs like this:
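ATP-based luminescence (ATPlite), read after 10 min at room temperature, served as a proxy for cell number, and IC50 was fitted against compound concentration. Before that, cells were treated for 3 days with an 8-point 1:3 dilution series starting at 10 μM. BaF3 cells were plated at 10,000/well without IL-3, and MV-4-11 cells at 25,000/well.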

Bounds are passed on as bounds.

Take `CCOc1ccc(Nc2ccc(Cc3c[nH]c4ncnc(OC)c34)c(F)n2)cn1` [Compound P-4005, (6-Ethoxy-pyridin-3-yl)-[6-fluoro-5-(4-methoxy-7H-pyrrolo[2,3-d]pyrimidin-5-ylmethyl)-pyridin-2-yl]-amine]: in the series with SKNSH cells, the IC50 was less than 1 µM. Also, in series [1], the “turbidity threshold (L, M, H) 1.4” value is “M (moderate solubility if the threshold concentration is 31.3 μM to 250 μM)”; the “turbidity threshold (L, M, H) 4.5” value is “L (low solubility if the threshold concentration is <31.3 μM)”; the “turbidity threshold (L, M, H) 6.8” value is on record as “L (low solubility if the threshold concentration is <31.3 μM)”; the “turbidity threshold (L, M, H) 7.4” value is recorded as “L (low solubility if the threshold concentration is <31.3 μM)”. In addition, the IC50 in the series on MV-4-11 cells is less than 1 µM.

For the molecule `CCOc1ccc(Nc2ccc(Cc3c[nH]c4ncnc(C)c34)c(F)n2)cn1` [Compound P-4006, (6-Ethoxy-pyridin-3-yl)-[6-fluoro-5-(4-methyl-7H-pyrrolo[2,3-d]pyrimidin-5-ylmethyl)-pyridin-2-yl]-amine], in the series with SKNSH cells, the IC50 was less than 0.1 µM. In addition, in series [1], the “turbidity threshold (L, M, H) 1.4” value is on record as “H (high solubility if the threshold concentration is >250 μm)”; the “turbidity threshold (L, M, H) 4.5” value is recorded as “L (low solubility if the threshold concentration is <31.3 μM)”; the “turbidity threshold (L, M, H) 6.8” value was “L (low solubility if the threshold concentration is <31.3 μM)”; the “turbidity threshold (L, M, H) 7.4” value is reported as “L (low solubility if the threshold concentration is <31.3 μM)”. In the series on MV-4-11 cells, the IC50 is less than 0.1 µM.

Consider `CCc1ccc(Nc2ccc(Cc3c[nH]c4ncnc(OC)c34)c(F)n2)cn1` [Compound P-4007, (6-Ethyl-pyridin-3-yl)-[6-fluoro-5-(4-methoxy-7H-pyrrolo[2,3-d]pyrimidin-5-ylmethyl)-pyridin-2-yl]-amine], for which the IC50 in the series on SKNSH cells is less than 1 µM. Further, in series [1], the “turbidity threshold (L, M, H) 1.4” value is given as “M (moderate solubility if the threshold concentration is 31.3 μM to 250 μM)”; the “turbidity threshold (L, M, H) 4.5” value was “L (low solubility if the threshold concentration is <31.3 μM)”; the “turbidity threshold (L, M, H) 6.8” value is “L (low solubility if the threshold concentration is <31.3 μM)”; the “turbidity threshold (L, M, H) 7.4” value is recorded as “L (low solubility if the threshold concentration is <31.3 μM)”. Moreover, in the series on MV-4-11 cells, the IC50 is less than 1 µM.

On to `CCOc1ccc(Nc2ccc(Cc3c[nH]c4ncnc(OCCOC)c34)c(F)n2)cn1` [Compound P-4008, (6-Ethoxy-pyridin-3-yl)-{6-fluoro-5-[4-(2-methoxy-ethoxy)-7H-pyrrolo[2,3-d]pyrimidin-5-ylmethyl]-pyridin-2-yl}-amine], for which, in the series on SKNSH cells, the IC50 is more than 1 µM. In series [1], the “turbidity threshold (L, M, H) 1.4” value was “M (moderate solubility if the threshold concentration is 31.3 μM to 250 μM)”; the “turbidity threshold (L, M, H) 4.5” value is “M (moderate solubility if the threshold concentration is 31.3 μM to 250 μM)”; the “turbidity threshold (L, M, H) 6.8” value was “M (moderate solubility if the threshold concentration is 31.3 μM to 250 μM)”; the “turbidity threshold (L, M, H) 7.4” value is listed as “M (moderate solubility if the threshold concentration is 31.3 μM to 250 μM)”. Besides, the IC50 with MV-4-11 cells is less than 0.1 µM.

Regarding `CCc1ccc(Nc2ccc(Cc3c[nH]c4ncnc(C)c34)c(F)n2)cn1` [Compound P-4009, (6-Ethyl-pyridin-3-yl)-[6-fluoro-5-(4-methyl-7H-pyrrolo[2,3-d]pyrimidin-5-ylmethyl)-pyridin-2-yl]-amine], the IC50 in the series on SKNSH cells was less than 0.1 µM. For the same molecule, in series [1], the “turbidity threshold (L, M, H) 1.4” value is listed as “H (high solubility if the threshold concentration is >250 μm)”; the “turbidity threshold (L, M, H) 4.5” value was “M (moderate solubility if the threshold concentration is 31.3 μM to 250 μM)”; the “turbidity threshold (L, M, H) 6.8” value is given as “L (low solubility if the threshold concentration is <31.3 μM)”; the “turbidity threshold (L, M, H) 7.4” value is “L (low solubility if the threshold concentration is <31.3 μM)”. Besides, in the series with MV-4-11 cells, the IC50 was less than 0.1 µM.

Take `COc1ncnc2[nH]cc(Cc3ccc(Nc4ccc(C)nc4)nc3F)c12` [Compound P-4010, [6-Fluoro-5-(4-methoxy-7H-pyrrolo[2,3-d]pyrimidin-5-ylmethyl)-pyridin-2-yl]-(6-methyl-pyridin-3-yl)-amine]: in the series with SKNSH cells, the IC50 was less than 1 µM. For the same molecule, in series [1], the “turbidity threshold (L, M, H) 1.4” value was “H (high solubility if the threshold concentration is >250 μm)”; the “turbidity threshold (L, M, H) 4.5” value is listed as “M (moderate solubility if the threshold concentration is 31.3 μM to 250 μM)”; the “turbidity threshold (L, M, H) 6.8” value is given as “L (low solubility if the threshold concentration is <31.3 μM)”; the “turbidity threshold (L, M, H) 7.4” value is on record as “L (low solubility if the threshold concentration is <31.3 μM)”. Moreover, in the series with MV-4-11 cells, the IC50 was less than 1 µM.

Take `CCn1cc(Nc2ccc(Cc3c[nH]c4ncnc(OC)c34)c(F)n2)cn1` [Compound P-4011, (1-Ethyl-1H-pyrazol-4-yl)-[6-fluoro-5-(4-methoxy-7H-pyrrolo[2,3-d]pyrimidin-5-ylmethyl)-pyridin-2-yl]-amine]: the IC50 in the series on SKNSH cells was more than 1 µM. Further, in series [1], the “turbidity threshold (L, M, H) 1.4” value is listed as “M (moderate solubility if the threshold concentration is 31.3 μM to 250 μM)”; the “turbidity threshold (L, M, H) 4.5” value is “M (moderate solubility if the threshold concentration is 31.3 μM to 250 μM)”; the “turbidity threshold (L, M, H) 6.8” value is on record as “M (moderate solubility if the threshold concentration is 31.3 μM to 250 μM)”; the “turbidity threshold (L, M, H) 7.4” value is recorded as “M (moderate solubility if the threshold concentration is 31.3 μM to 250 μM)”. Also, in the series with MV-4-11 cells, the IC50 is less than 1 µM.

With `CCOc1ncnc2[nH]cc(Cc3ccc(Nc4cnn(CC)c4)nc3F)c12` [Compound P-4012, [5-(4-Ethoxy-7H-pyrrolo[2,3-d]pyrimidin-5-ylmethyl)-6-fluoro-pyridin-2-yl]-(1-ethyl-1H-pyrazol-4-yl)-amine], the IC50 in the series on SKNSH cells was more than 1 µM. In series [1], the “turbidity threshold (L, M, H) 1.4” value was “M (moderate solubility if the threshold concentration is 31.3 μM to 250 μM)”; the “turbidity threshold (L, M, H) 4.5” value is listed as “L (low solubility if the threshold concentration is <31.3 μM)”; the “turbidity threshold (L, M, H) 6.8” value was “L (low solubility if the threshold concentration is <31.3 μM)”; the “turbidity threshold (L, M, H) 7.4” value is on record as “L (low solubility if the threshold concentration is <31.3 μM)”. Further, in the series on MV-4-11 cells, the IC50 is less than 1 µM.

For the molecule `CCn1cc(Nc2ccc(Cc3c[nH]c4ncnc(C)c34)c(F)n2)cn1` [Compound P-4013, (1-Ethyl-1H-pyrazol-4-yl)-[6-fluoro-5-(4-methyl-7H-pyrrolo[2,3-d]pyrimidin-5-ylmethyl)-pyridin-2-yl]-amine], the IC50 with SKNSH cells was more than 1 µM. Moreover, in series [1], the “turbidity threshold (L, M, H) 1.4” value was “H (high solubility if the threshold concentration is >250 μm)”; the “turbidity threshold (L, M, H) 4.5” value is “M (moderate solubility if the threshold concentration is 31.3 μM to 250 μM)”; the “turbidity threshold (L, M, H) 6.8” value is “M (moderate solubility if the threshold concentration is 31.3 μM to 250 μM)”; the “turbidity threshold (L, M, H) 7.4” value is listed as “M (moderate solubility if the threshold concentration is 31.3 μM to 250 μM)”. In addition, the IC50 in the series with MV-4-11 cells is less than 1 µM.

Regarding `CCn1cc(Nc2ccc(Cc3c[nH]c4ncnc(OCCOC)c34)c(F)n2)cn1` [Compound P-4014, (1-Ethyl-1H-pyrazol-4-yl)-{6-fluoro-5-[4-(2-methoxy-ethoxy)-7H-pyrrolo[2,3-d]pyrimidin-5-ylmethyl]-pyridin-2-yl}-amine], the IC50 with SKNSH cells was more than 10 µM. In addition, in series [1], the “turbidity threshold (L, M, H) 1.4” value is listed as “M (moderate solubility if the threshold concentration is 31.3 μM to 250 μM)”; the “turbidity threshold (L, M, H) 4.5” value is given as “M (moderate solubility if the threshold concentration is 31.3 μM to 250 μM)”; the “turbidity threshold (L, M, H) 6.8” value was “M (moderate solubility if the threshold concentration is 31.3 μM to 250 μM)”; the “turbidity threshold (L, M, H) 7.4” value is “M (moderate solubility if the threshold concentration is 31.3 μM to 250 μM)”. Besides, the IC50 with MV-4-11 cells was less than 1 µM.

`COCCOc1ncnc2[nH]cc(Cc3ccc(Nc4ccc(C)nc4)nc3F)c12` [Compound P-4015, {6-Fluoro-5-[4-(2-methoxy-ethoxy)-7H-pyrrolo[2,3-d]pyrimidin-5-ylmethyl]-pyridin-2-yl}-(6-methyl-pyridin-3-yl)-amine]: in the series on SKNSH cells, the IC50 is more than 1 µM. For the same molecule, in series [1], the “turbidity threshold (L, M, H) 1.4” value is “M (moderate solubility if the threshold concentration is 31.3 μM to 250 μM)”; the “turbidity threshold (L, M, H) 4.5” value is “M (moderate solubility if the threshold concentration is 31.3 μM to 250 μM)”; the “turbidity threshold (L, M, H) 6.8” value was “M (moderate solubility if the threshold concentration is 31.3 μM to 250 μM)”; the “turbidity threshold (L, M, H) 7.4” value was “M (moderate solubility if the threshold concentration is 31.3 μM to 250 μM)”. In addition, in the series on MV-4-11 cells, the IC50 was less than 1 µM.

Regarding `CCc1ccc(Nc2ccc(Cc3c[nH]c4ncnc(OCCOC)c34)c(F)n2)cn1` [Compound P-4016, (6-Ethyl-pyridin-3-yl)-{6-fluoro-5-[4-(2-methoxy-ethoxy)-7H-pyrrolo[2,3-d]pyrimidin-5-ylmethyl]-pyridin-2-yl}-amine], the IC50 in the series with SKNSH cells is more than 1 µM. Also, in series [1], the “turbidity threshold (L, M, H) 1.4” value is “M (moderate solubility if the threshold concentration is 31.3 μM to 250 μM)”; the “turbidity threshold (L, M, H) 4.5” value is on record as “H (high solubility if the threshold concentration is >250 μm)”; the “turbidity threshold (L, M, H) 6.8” value is reported as “M (moderate solubility if the threshold concentration is 31.3 μM to 250 μM)”; the “turbidity threshold (L, M, H) 7.4” value is on record as “M (moderate solubility if the threshold concentration is 31.3 μM to 250 μM)”. In addition, the IC50 in the series with MV-4-11 cells is less than 0.1 µM.
